In article PMC4805251, “Novel Antimicrobial Peptides EeCentrocins 1, 2 and EeStrongylocin 2 from the Edible Sea Urchin Echinus esculentus Have 6-Br-Trp Post-Translational Modifications” (PLoS ONE, 2016):
Converted amounts (≈) assume the structure as drawn. Where two headings read alike, the source gives them in different places. Square brackets hold non-standard residues; d marks the D form. Peptide text beside a SMILES is read from it. Trp(6-Br) = N[C@@H](Cc1c[nH]c2cc(Br)ccc12)C(=O)O

Assays:
Format in all cases: cell-based
Rhodotorula sp. = system: Rhodotorula sp.
Description: (§1) The synthetic peptides (see section 2.11) were also screened for antifungal activity against Candida albicans (ATCC 10231), Saccharomyces cerevisiae, Rhodotorula sp., Aureobasidium pullulans and Cladosporium sp. The antifungal assay was performed as described previously. Briefly, fungal spores were dissolved in potato dextrose broth (Difco, Lawrence, KS, USA) to a concentration of 4 × 10^5 spores/ml. The spores (50 μl) were inoculated on 96-well Nunclon^TM microtiter plates containing the synthetic peptides (50 μl) dissolved in MQ-H2O. […] MIC was defined as the lowest concentration of peptide giving no visible fungal growth. The negative (growth) control contained medium and fungal solution.
(§2) ACN-phases and SPE eluates were tested with two-fold serial dilutions ranging from 5.0 to 0.005 mg/ml (5.0, 2.5, 1.25, 0.63, 0.31, 0.16, 0.08, 0.04, 0.02, 0.01, 0.005 mg/ml) whereas HPLC-fractions were tested undiluted for antibacterial activity. Pure, native peptides and synthetic peptides (described in section 2.11) were tested for antimicrobial activity in concentrations ranging from 100 to 0.1 μM in two-fold serial dilutions (100, 50, 25, 12.5, 6.25, 3.13, 1.56, 0.78, 0.39, 0.20, 0.10 μM). Antimicrobial assays involving natural peptides (i.e. fractionated natural material) were run only once due to limited quantities, whereas all other assays were run in triplicates.

Saccharomyces cerevisiae = system: Saccharomyces cerevisiae
Description: as §1, §2

[1] = system: Candida albicans (ATCC 10231)
Description: as §1, §2

Cladosporium sp. = system: Cladosporium sp.
Description: as §1, §2

Aureobasidium pullulans = system: Aureobasidium pullulans
Description: as §1, §2

[2] = system: Gram-positive and Gram-negative bacteria (tested strains); settings: 24 h
Description: Organic phase extract, SPE eluates and HPLC-fractions were screened for antibacterial activity against two strains of Gram-positive and two strains of Gram-negative bacteria; Corynebacterium glutamicum (ATCC 13032), Staphylococcus aureus (ATCC 9144), Pseudomonas aeruginosa #1 (ATCC 27853) and Escherichia coli #1 (ATCC 25922). For extended antimicrobial bioactivity screening, the following bacterial strains were used, three strains of Gram-positive bacteria; S. epidermidis #1 (5179-R1) kindly provided by Holger Rohde, S. epidermidis #2, RP62A (ATCC 35984) and Bacillus subtilis (ATCC 23857) in addition to the Gram-negative P. aeruginosa #2, PA 01 (ATCC 15692, DSM 19880) and E. coli #2, NR 698 (MC4100/ptD4213). […]
The test plates were incubated for 24 h at 35°C with optical density (OD595) recorded every hour using an Envision 2103 multilabel reader, controlled by the Wallac Envision manager (PerkinElmer, CT, USA). […]
ACN-phases and SPE eluates were tested with two-fold serial dilutions ranging from 5.0 to 0.005 mg/ml (5.0, 2.5, 1.25, 0.63, 0.31, 0.16, 0.08, 0.04, 0.02, 0.01, 0.005 mg/ml) whereas HPLC-fractions were tested undiluted for antibacterial activity. […] Antimicrobial assays involving natural peptides (i.e. fractionated natural material) were run only once due to limited quantities, whereas all other assays were run in triplicates.

[3] = system: Corynebacterium glutamicum (ATCC 13032)
Description: (§3) Organic phase extract, SPE eluates and HPLC-fractions were screened for antibacterial activity against two strains of Gram-positive and two strains of Gram-negative bacteria; Corynebacterium glutamicum (ATCC 13032), Staphylococcus aureus (ATCC 9144), Pseudomonas aeruginosa #1 (ATCC 27853) and Escherichia coli #1 (ATCC 25922). For extended antimicrobial bioactivity screening, the following bacterial strains were used, three strains of Gram-positive bacteria; S. epidermidis #1 (5179-R1) kindly provided by Holger Rohde, S. epidermidis #2, RP62A (ATCC 35984) and Bacillus subtilis (ATCC 23857) in addition to the Gram-negative P. aeruginosa #2, PA 01 (ATCC 15692, DSM 19880) and E. coli #2, NR 698 (MC4100/ptD4213).
(§4) Cultures stored at -80°C were smeared onto agar plates and cultured for 24 h at 35°C. One colony of each bacterial strain was transferred to 5 ml liquid Müller-Hinton (MH, Difco, Lawrence, KS, USA) medium in a glass tube and left shaking at room temperature overnight at 600 rpm. The cultures of actively growing bacteria (20 μl) were further inoculated in 5 ml MH medium and left shaking for 2 h at room temperature. The antibacterial assays were performed as previously described by. Briefly, the bacterial cultures were diluted with medium to 1.3–1.5 × 10^4 bacteria/ml final concentrations and an aliquot of 50 μl was added to each well in 96-well Nunclon^TM microtiter plates (Nagle Nunc Int., Denmark) preloaded with 50 μl test sample solutions, i.e. extracts, eluates or peptides.
(§5) The test plates were incubated for 24 h at 35°C with optical density (OD595) recorded every hour using an Envision 2103 multilabel reader, controlled by the Wallac Envision manager (PerkinElmer, CT, USA). Antibacterial activity was defined as a sample showing >90% inhibition (as measured by optical density) compared to the negative (growth) controls, consisting of bacteria and water. Oxytetracycline (20 μM) served as a positive (inhibition) control. The minimum inhibitory concentration (MIC) was defined as the lowest concentration of a sample displaying >90% inhibition.
as §2

[4] = system: Escherichia coli #1 (ATCC 25922)
Description: as §3, §4, §5, §2

[5] = system: E. coli #2, NR 698 (MC4100/ptD4213)
Description: as §3, §4, §5, §2

[6] = system: Bacillus subtilis (ATCC 23857)
Description: as §3, §4, §5, §2

[7] = system: S. epidermidis #2, RP62A (ATCC 35984)
Description: as §3, §4, §5, §2

[8] = system: Staphylococcus aureus (ATCC 9144)
Description: as §3, §4, §5, §2

[9] = system: P. aeruginosa #2, PA 01 (ATCC 15692, DSM 19880)
Description: as §3, §4, §5, §2

[10] = system: S. epidermidis #1 (5179-R1)
Description: as §3, §4, §5, §2

[11] = system: Pseudomonas aeruginosa #1 (ATCC 27853)
Description: as §3, §4, §5, §2

CC(C)C[C@H](NC(=O)[C@H](C)NC(=O)CNC(=O)[C@H](CS)NC(=O)[C@H](C)NC(=O)[C@H](CCCCN)NC(=O)[C@H](CO)NC(=O)[C@H](C)NC(=O)[C@H](Cc1ccccc1)NC(=O)CNC(=O)[C@H](C)NC(=O)[C@@H](NC(=O)[C@H](CCCCN)NC(=O)[C@H](CCCNC(=N)N)NC(=O)CNC(=O)[C@H](C)NC(=O)[C@H](CC(N)=O)NC(=O)[C@H](CCCNC(=N)N)NC(=O)[C@@H](NC(=O)[C@H](CCCCN)NC(=O)[C@H](CC(=O)O)NC(=O)[C@@H](NC(=O)[C@@H](NC(=O)[C@H](CCCNC(=N)N)NC(=O)[C@H](CCCNC(=N)N)NC(=O)[C@H](Cc1c[nH]c2cc(Br)ccc12)NC(=O)[C@H](Cc1c[nH]c2cc(Br)ccc12)NC(=O)CN)[C@@H](C)O)C(C)C)C(C)C)C(C)C)C(=O)NCC(=O)N[C@@H](Cc1c[nH]cn1)C(=O)O [EeCentrocin 1 HC-diBr] (H-G[Trp(6-Br)][Trp(6-Br)]RRTVDKVRNAGRKVAGFASKACGALGH-OH)
MIC raw data Rhodotorula sp. (Rhodotorula sp.; parallel 1 of three): 12.5 µM (≈ 42.7 µg/mL)
MIC raw data Rhodotorula sp. (Rhodotorula sp.; parallel 2 of three): 12.5 µM (≈ 42.7 µg/mL)
MIC raw data Rhodotorula sp. (Rhodotorula sp.; parallel 3 of three): 12.5 µM (≈ 42.7 µg/mL)
MIC S. cerevisiae (Saccharomyces cerevisiae; 24 h): >100 µM
MIC raw data S. cerevisiae (Saccharomyces cerevisiae; parallel 1 of three): >100 µM
MIC raw data S. cerevisiae (Saccharomyces cerevisiae; parallel 2 of three): >100 µM
MIC raw data S. cerevisiae (Saccharomyces cerevisiae; parallel 3 of three): >100 µM
MIC C. albicans ([1]; ATCC 10231, 24 h): 50 µM (≈ 171 µg/mL)
MIC raw data C. albicans ([1]; parallel 1 of three): 50 µM (≈ 171 µg/mL)
MIC raw data C. albicans ([1]; parallel 2 of three): 50 µM (≈ 171 µg/mL)
MIC raw data C. albicans ([1]; parallel 3 of three): 50 µM (≈ 171 µg/mL)
MIC Cladosporium sp. (Cladosporium sp.; 24 h): >100 µM
MIC raw data Cladosporium sp. (Cladosporium sp.; parallel 1 of three): >100 µM
MIC raw data Cladosporium sp. (Cladosporium sp.; parallel 2 of three): >100 µM
MIC raw data Cladosporium sp. (Cladosporium sp.; parallel 3 of three): >100 µM
MIC A. pullulans (Aureobasidium pullulans; 24 h): 6.25 µM (≈ 21.3 µg/mL)
MIC raw data A. pullulans (Aureobasidium pullulans; parallel 1 of three): 6.25 µM (≈ 21.3 µg/mL)
MIC raw data A. pullulans (Aureobasidium pullulans; parallel 2 of three): 6.25 µM (≈ 21.3 µg/mL)
MIC raw data A. pullulans (Aureobasidium pullulans; parallel 3 of three): 6.25 µM (≈ 21.3 µg/mL)
MIC range towards bacteria [2]: 0.78 to 6.25 µM
MIC C. glutamicum ([3]; ATCC 13032, 24 h): 0.78 µM (≈ 2.66 µg/mL)
MIC raw data C. glutamicum ([3]; parallel 1 of three): 0.78 µM (≈ 2.66 µg/mL)
MIC raw data C. glutamicum ([3]; parallel 2 of three): 0.78 µM (≈ 2.66 µg/mL)
MIC raw data C. glutamicum ([3]; parallel 3 of three): 0.39 µM (≈ 1.33 µg/mL)
MIC raw data E. coli #1 ([4]; parallel 1 of three): 1.56 µM (≈ 5.33 µg/mL)
MIC raw data E. coli #1 ([4]; parallel 2 of three): 1.56 µM (≈ 5.33 µg/mL)
MIC raw data E. coli #1 ([4]; parallel 3 of three): 0.78 µM (≈ 2.66 µg/mL)
MIC raw data E. coli #2 ([5]; parallel 1 of three): 1.56 µM (≈ 5.33 µg/mL)
MIC raw data E. coli #2 ([5]; parallel 2 of three): 1.56 µM (≈ 5.33 µg/mL)
MIC raw data E. coli #2 ([5]; parallel 3 of three): 0.78 µM (≈ 2.66 µg/mL)
MIC raw data B. subtilis ([6]; parallel 1 of three): 1.56 µM (≈ 5.33 µg/mL)
MIC raw data B. subtilis ([6]; parallel 2 of three): 1.56 µM (≈ 5.33 µg/mL)
MIC raw data B. subtilis ([6]; parallel 3 of three): 0.78 µM (≈ 2.66 µg/mL)
MIC S. epidermidis #2 ([7]; ATCC 35984, 24 h): 3.13 µM (≈ 10.7 µg/mL)
MIC raw data S. epidermidis #2 ([7]; parallel 1 of three): 3.13 µM (≈ 10.7 µg/mL)
MIC raw data S. epidermidis #2 ([7]; parallel 2 of three): 3.13 µM (≈ 10.7 µg/mL)
MIC raw data S. epidermidis #2 ([7]; parallel 3 of three): 3.13 µM (≈ 10.7 µg/mL)
MIC S. aureus ([8]; ATCC 9144, 24 h): 3.13 µM (≈ 10.7 µg/mL)
MIC raw data S. aureus ([8]; parallel 1 of three): 3.13 µM (≈ 10.7 µg/mL)
MIC raw data S. aureus ([8]; parallel 2 of three): 3.13 µM (≈ 10.7 µg/mL)
MIC raw data S. aureus ([8]; parallel 3 of three): 1.56 µM (≈ 5.33 µg/mL)
MIC P. aeruginosa #2 ([9]; ATCC 15692, 24 h): 3.13 µM (≈ 10.7 µg/mL)
MIC raw data P. aeruginosa #2 ([9]; parallel 1 of three): 3.13 µM (≈ 10.7 µg/mL)
MIC raw data P. aeruginosa #2 ([9]; parallel 2 of three): 3.13 µM (≈ 10.7 µg/mL)
MIC raw data P. aeruginosa #2 ([9]; parallel 3 of three): 3.13 µM (≈ 10.7 µg/mL)
MIC S. epidermidis #1 ([10]; #1 (5179-R1, 24 h)): 6.25 µM (≈ 21.3 µg/mL)
MIC raw data S. epidermidis #1 ([10]; parallel 1 of three): 6.25 µM (≈ 21.3 µg/mL)
MIC raw data S. epidermidis #1 ([10]; parallel 2 of three): 6.25 µM (≈ 21.3 µg/mL)
MIC raw data S. epidermidis #1 ([10]; parallel 3 of three): 6.25 µM (≈ 21.3 µg/mL)
MIC raw data P. aeruginosa #1 ([11]; parallel 1 of three): 1.56 µM (≈ 5.33 µg/mL)
MIC raw data P. aeruginosa #1 ([11]; parallel 2 of three): 1.56 µM (≈ 5.33 µg/mL)
MIC raw data P. aeruginosa #1 ([11]; parallel 3 of three): 1.56 µM (≈ 5.33 µg/mL)
